Values quoted from earlier work as cited in patent US20230043979A1, “PHOSPHODIESTERASE-4 INHIBITOR COMBINATIONS, METHODS OF MAKING, AND METHODS OF USE THEREOF” (VK RESEARCH ASSOCIATES INC., priority 2021, published 2023).

Conditions: for Median plasma/elimination Half-life (T1/2): Table 1, PDE4 inhibitors, in h; for half-life / median time to maximum concentration: oral administration

Row | SMILES | Median plasma/elimination Half-life (T1/2) | half-life | median time to maximum concentration
1 | O=C(Nc1c(Cl)cncc1Cl)c1ccc(OC(F)F)c(OCC2CC2)c1 [Roflumilast] | 17 - 30 | 17 to 30 h | 1 to 2 h
2 | COc1ccc([C@]2(C#N)CC[C@@H](C(=O)O)CC2)cc1OC1CCCC1 [Cilomilast] | 7 |  | 
3 | CCOc1cc([C@@H](CS(C)(=O)=O)N2C(=O)c3cccc(NC(C)=O)c3C2=O)ccc1OC [Apremilast] | 6 to 9 |  | 
4 | N#Cc1ccc(Oc2ccc3c(c2)COB3O)cc1 [Crisaborole] | 11.9 ± 8.3 |  | 
5 | CC(C)C(=O)c1c(C(C)C)nn2ccccc12 [Ibudilast] | 19 |  | 
6 | COc1ccc(C2CNC(=O)C2)cc1OC1CCCC1 (stereo not shown) [Rolipram] | 3 | about 3 hours | about 30 minutes
